Data from paper PMC9551036, “A selective and orally bioavailable VHL-recruiting PROTAC achieves SMARCA2 degradation in vivo” (Nature Communications, 2022).
Where “and” joins values, the source holds several entries; their conditions need not be identical. Equal values may be shown once. Read-outs that look alike come from different tables or passages of the source.

Biological target: SMARCA4 (Homo sapiens, UniProt P51532)
Assay: SMARCA4 capillary electrophoresis protein assay in other cell lines (HCT116, LU99, HCC-364, HCT-15, HCC4006, SK-N-AS)
Format: cell-based
Parameters: endogenous in cells; host or cells: RKO, HCT116, LU99, HCC-364, HCT-15, HCC4006, SK-N-AS
Conditions: for LogEC50: log10 of concentration in mol/l; for DC50: protein degradation, read-out: EC50 (the source's name); for DC50 / Bottom (best-fit value, % protein remaining) / HillSlope: four-parameter fit
Description: 130,000–200,000 cells were seeded in 24-well plates and incubated until settled down or overnight. Compounds were dissolved in DMSO and added to cells in indicated concentrations using a digital dispenser following an optional media change. […] For SMARCA2/4 half-life determination, 150,000 or 200,000 cells were seeded in 24-well plates. […] For SMARCA2/4 re-synthesis measurements, 200,000 cells were seeded in 24-well plates. […] Medium was removed, cells were washed with PBS and lysed with 80 µl Lysis Buffer (MSD Tris Lysis Buffer (#R60TX-2) + Halt Inhibitor Cocktail (100x) + Benzonase 0.5 µL/ml). Samples were frozen at −80 °C and thawed at room temperature before use. Samples were transferred to a V-bottom plate and insoluble debris was pelleted by centrifugation for 5 min at maximum speed. The supernatant was transferred to a fresh plate. Master Mix and Ladder were prepared according to manufacturer’s instructions for 12–230 kDa Wes Separation Module, 8 × 25 capillary cartridges, Protein Simple #SM-W004 with Anti-Rabbit Detection Module for Wes, Peggy Sue or Sally Sue, Protein Simple #DM-001. 4.8 µl lysate were mixed with 1.2 µl Master Mix to achieve a protein concentration of ~0.5 µg/µl. […] Wes plates were prepared and run according to manufacturer’s instructions. Proteins were quantified with accompanying Compass Software. SMARCA2/4 protein levels were normalised to GAPDH. […] Where applicable, curves were fitted using a 4-parametric logistic model.

SMARCA4, sequence (P51532 whole entry): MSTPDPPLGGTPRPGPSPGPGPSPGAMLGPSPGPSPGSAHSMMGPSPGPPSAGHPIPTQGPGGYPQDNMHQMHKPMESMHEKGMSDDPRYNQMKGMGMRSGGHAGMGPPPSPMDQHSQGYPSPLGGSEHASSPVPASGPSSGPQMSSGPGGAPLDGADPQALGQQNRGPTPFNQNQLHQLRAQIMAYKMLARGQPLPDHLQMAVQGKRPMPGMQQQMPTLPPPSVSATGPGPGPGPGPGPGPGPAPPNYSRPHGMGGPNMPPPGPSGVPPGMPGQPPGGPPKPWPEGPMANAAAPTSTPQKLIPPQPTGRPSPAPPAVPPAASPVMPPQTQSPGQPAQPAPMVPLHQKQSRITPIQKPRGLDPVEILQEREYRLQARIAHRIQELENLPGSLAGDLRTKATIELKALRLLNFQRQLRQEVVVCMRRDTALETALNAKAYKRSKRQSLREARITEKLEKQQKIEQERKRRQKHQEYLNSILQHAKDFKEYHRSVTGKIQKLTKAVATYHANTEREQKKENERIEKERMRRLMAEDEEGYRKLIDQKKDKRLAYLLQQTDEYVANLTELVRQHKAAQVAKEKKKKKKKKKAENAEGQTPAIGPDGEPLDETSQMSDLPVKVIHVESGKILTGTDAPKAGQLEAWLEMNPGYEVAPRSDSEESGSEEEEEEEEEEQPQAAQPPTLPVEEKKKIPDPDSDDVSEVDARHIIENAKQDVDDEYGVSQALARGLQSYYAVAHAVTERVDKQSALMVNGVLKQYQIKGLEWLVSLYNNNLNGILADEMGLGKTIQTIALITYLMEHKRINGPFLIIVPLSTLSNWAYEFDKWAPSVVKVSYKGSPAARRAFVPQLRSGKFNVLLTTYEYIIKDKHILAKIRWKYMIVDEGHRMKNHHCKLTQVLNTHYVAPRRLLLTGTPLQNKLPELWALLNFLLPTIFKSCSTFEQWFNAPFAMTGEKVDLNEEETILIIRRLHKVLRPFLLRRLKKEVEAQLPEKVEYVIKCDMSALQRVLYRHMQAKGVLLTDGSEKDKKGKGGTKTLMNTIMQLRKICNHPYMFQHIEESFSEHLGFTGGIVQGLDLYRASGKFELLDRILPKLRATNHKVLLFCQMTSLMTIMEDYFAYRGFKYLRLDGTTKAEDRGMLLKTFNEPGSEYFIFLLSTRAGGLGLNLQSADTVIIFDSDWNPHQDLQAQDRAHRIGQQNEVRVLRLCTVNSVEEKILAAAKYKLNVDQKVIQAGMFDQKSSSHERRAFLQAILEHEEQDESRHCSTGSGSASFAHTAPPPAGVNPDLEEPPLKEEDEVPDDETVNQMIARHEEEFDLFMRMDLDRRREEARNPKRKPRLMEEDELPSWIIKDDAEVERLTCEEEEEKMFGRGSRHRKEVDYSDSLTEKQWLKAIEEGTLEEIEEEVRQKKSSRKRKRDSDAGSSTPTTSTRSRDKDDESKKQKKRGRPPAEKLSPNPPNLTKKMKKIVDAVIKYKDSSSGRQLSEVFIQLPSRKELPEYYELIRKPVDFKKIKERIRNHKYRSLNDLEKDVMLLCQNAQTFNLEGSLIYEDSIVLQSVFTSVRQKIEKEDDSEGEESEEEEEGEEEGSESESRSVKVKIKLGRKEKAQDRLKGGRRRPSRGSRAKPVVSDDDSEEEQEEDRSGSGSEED

Q: What does the source list for `Cc1ncsc1-c1ccc(C(CCC(C)CCN2CCC(c3ccc4c(c3)n(C3CCCC3)c3nc(=O)c5c(Br)cccc5n43)CC2)NC(=O)C2CC(O)CN2C(=O)C(NC(=O)C2(F)CC2)C(C)(C)C)cc1` (stereo not drawn) [ACBI2]?
A: LogEC50 (HCC4006_SM4): -7.029; DC50 (HCC4006_SM4): 93.5 nM; Bottom (best-fit value, % protein remaining) (HCC-364_SM4): 3.161%; HillSlope (HCC-364_SM4): -1.653; % protein remaining (HCC-364_SM4, log10[concentration (mol/l)] -6): 3.167% and 1.374% and 3.983%; % protein remaining (HCC-364_SM4, log10[concentration (mol/l)] -7): 9.937% and 9.321% and 6.672%; % protein remaining (HCC-364_SM4, log10[concentration (mol/l)] -8): 73.4926% and 97.1764% and 52.0353%; % protein remaining (HCC-364_SM4, log10[concentration (mol/l)] -9): 95.3509% and 123.202% and 101.968%; % protein remaining (HCC-364_SM4, log10[concentration (mol/l)] -10): 89.9664% and 104.013% and 115.065%; LogEC50 (HCC-364_SM4): -7.78; DC50 (HCC-364_SM4): 16.6 nM; Bottom (% protein remaining, four-parameter fit) (HCT116, SM4): 25.06%; HillSlope (protein remaining) (HCT116, SM4): -2.072; Top (% protein remaining, four-parameter fit) (HCT116, SM4): 134.1%; % protein remaining (HCT116, SM4, conc 9.54e-12 mol/l): 111.196% and 129.494%; % protein remaining (HCT116, SM4, conc 3.81e-11 mol/l): 120.316% and 148.32%; % protein remaining (HCT116, SM4, conc 1.53e-10 mol/l): 129.784% and 140.879%; % protein remaining (HCT116, SM4, conc 6.1e-10 mol/l): 129.281% and 147.637%; % protein remaining (HCT116, SM4, conc 2.44e-9 mol/l): 120.666% and 159.63%; % protein remaining (HCT116, SM4, conc 9.77e-9 mol/l): 125.866% and 131.203%; % protein remaining (HCT116, SM4, conc 3.91e-8 mol/l): 69.9313% and 71.3683%; % protein remaining (HCT116, SM4, conc 1.56e-7 mol/l): 36.8806% and 32.4224%; % protein remaining (HCT116, SM4, conc 6.25e-7 mol/l): 24.622% and 20.2431%; % protein remaining (HCT116, SM4, conc 2.5e-6 mol/l): 26.4349% and 21.0447%; HillSlope (HCT-15_SM4): -0.3445; % protein remaining (HCT-15_SM4, log10[concentration (mol/l)] -6): 18.6748% and 17.1977% and 14.8633%; % protein remaining (HCT-15_SM4, log10[concentration (mol/l)] -7): 73.6571% and 71.0762% and 61.1459%; % protein remaining (HCT-15_SM4, log10[concentration (mol/l)] -8): 98.6414% and 84.1205% and 64.0182%; % protein remaining (HCT-15_SM4, log10[concentration (mol/l)] -9): 109.23% and 94.5032% and 92.8527%; % protein remaining (HCT-15_SM4, log10[concentration (mol/l)] -10): 99.1975% and 103.016%; Bottom (best-fit value, % protein remaining) (LU99_SM4): 6.337%; HillSlope (LU99_SM4): -1.201; % protein remaining (LU99_SM4, log10[concentration (mol/l)] -8): 52.7226% and 80.027% and 88.2243% and 72.2723%; % protein remaining (LU99_SM4, log10[concentration (mol/l)] -9): 95.2248% and 87.3538% and 102.946% and 96.8042%; % protein remaining (LU99_SM4, log10[concentration (mol/l)] -10): 95.6247% and 91.3% and 105.138% and 100.656%; LogEC50 (LU99_SM4): -7.559; DC50 (LU99_SM4): 27.6 nM; Bottom (best-fit value, % protein remaining) (SK-N-AS_SM4): 7.287%; HillSlope (SK-N-AS_SM4): -0.8189; % protein remaining (SK-N-AS_SM4, log10[concentration (mol/l)] -6): 10.7051% and 13.0346%; % protein remaining (SK-N-AS_SM4, log10[concentration (mol/l)] -8): 53.489% and 73.7834%; % protein remaining (SK-N-AS_SM4, log10[concentration (mol/l)] -9): 84.3752% and 77.8596%; % protein remaining (SK-N-AS_SM4, log10[concentration (mol/l)] -10): 91.2323% and 74.8856%; LogEC50 (SK-N-AS_SM4): -7.454; DC50 (SK-N-AS_SM4): 35.2 nM
